Test results from patent US20250127774A1, “COMPOUNDS FOR LABELLING NUCLEIC ACID AND USES THEREOF” (THE ROYAL INSTITUTION FOR THE ADVANCEMENT OF …, priority 2022, published 2025).
pKd: −log10 of the molar value. Values joined by “and” are separate entries in the source; they are usually repeats but may differ in a detail not shown here. Identical values can stand only once.

Assays:
[1] = Kinetic measurements with the VdU nucleoside (non-templated IEDDA reaction); conditions: 50 mM aq. NaOAc buffer pH 5.2 (27% DMSO)
Procedure: A) Fluorescence increase versus time upon mixing PINK with VdU. […] B) Normalized increase of fluorescence. C) Plot of the observed rates k′ versus PINK concentrations. The slope yields the rate constant k.
PINK (4) undergoes a highly fluorogenic and regioselective IEDDA reaction with VdU (5) to give “PINK-VdU-ox” (6) as a single isomer in a 76% isolated yield after 7d at 60° C. (Scheme 1). The slow rate of this non-templated reaction (Kapp=0.01 M^−1 s^−1, FIG. 5) is due to the combination of an unstrained terminal alkene and unactivated tetrazine.^[49] Over the course of the reaction, a ˜100-fold increase in fluorescence was observed (FIG. 3, c). […]
Kinetic Measurements with the VdU Nucleoside. Second order reaction rates between PINK and VdU were determined under pseudo first order conditions with a large excess of the dienophile over the tetrazine. […] Measurements were performed on a SpectraMax M5 plate reader (Molecular Devices, Sunnyvale, CA, USA) in 384 well plates (Greiner bio-one, cat-#871906; 50 μL per well; covered with 20 μL spectroscopic grade silicon oil to avoid evaporation). […] Samples were measured over 18 h in intervals of 10 min. […] Reactions rates were calculated using pseudo first order approximations fitting the measurements to mono exponential equations. The reported reaction rate is an arithmetic mean determined from three independent experiments.

calf thymus (CT) DNA = experiment: Binding affinity measurements of PINK with CT-DNA (absorbance changes at 575 nm); conditions: 10 μM PINK, CT-DNA 0-160 μM base pairs, 50 mM NaOAc buffer pH 5.2 (0.2% DMSO); 1 molecule per 5 base pairs; read-out: apparent dissociation constant (KD)
Procedure: B) Fluorescence changes (excitation: 500 nm, emission: 590 nm; 515 nm cutoff filter) of 20 μM PINK in the presence of 1 mM b.p. CT-DNA (50 eq) in PBS pH 7.4 (10% DMSO) followed by addition of 5-norbornene-2-methanol (2 mM, 100 eq).
To evaluate the ability of PINK (4) to undergo reversible intercalation into duplex DNA, the absorbance of PINK was monitored upon addition of calf-thymus (CT) DNA. Consistent with intercalation,^[42-44] a bathochromic shift in PINK absorbance was observed upon addition of CT DNA (FIG. 3, a). To further evaluate the binding mode, viscosity measurements of concentrated DNA solutions were conducted in presence of increasing amounts of PINK. […] By taking the maximum binding stoichiometry of PINK into account (1 molecule per 5 base pairs; see FIG. 1b), an apparent dissociation constant KD can be calculated according to KD=[(unbound PINK)*(unbound DNA binding sites)]/(PINK-bound binding sites).
Binding Affinity Measurements of PINK with CT-DNA. Binding of PINK to CT-DNA was assessed by monitoring changes of absorbance collecting measurements on a SpectraMax M5 plate reader (Molecular Devices, Sunnyvale, CA, USA) in 1 cm path-length quartz cuvettes. […] Binding of PINK to CT-DNA and determination of an apparent binding constant (KD) was calculated by plotting changes of absorbance at 575 nm.

C57BL/6J mice = experiment: 5-VdU incorporation in rapidly proliferating cells in vivo; conditions: 500 mg/kg 5-VdU i.p. on two subsequent days
Procedure: 5-VdU incorporation in rapidly proliferating cells in vivo. C57BL/6J mice were either injected with 200 μl 10% DMSO in 1× sterile PBS as a vehicle or 500 mg/kg 5-VdU i.p. on two subsequent days and then sacrificed. Experimental group size was n=6. (A) Bone marrow was explanted, fixed, permeabilized and stained with PINK for 4 h at RT. Nuclei were counterstained with Hoechst33342. A strong nuclear signal can be observed in the PINK treated sample when compared to the controls. (B) Small intestine and (C) spleen tissue was subjected to paraffin embedding and the slides where then stained with PINK for 4 h at RT. Nuclei were counterstained with Hoechst33342. Specific nuclear signals are visible in the PINK treated sample when compared to the controls. […] These cells can be stained with PINK in FFPE sections=in vivo DNA replication/proliferation reporter.

SMILES	rate of non-templated reaction (Kapp) ([1]; 100 μM PINK, 1-5 mM VdU) [M⁻¹ s⁻¹]	stability of PINK under control conditions (0 mM VdU) ([1]; 18 h)	pKd (calf thymus (CT) DNA)	incorporation into rapidly dividing cells (bone marrow, small intestine, spleen; PINK staining) (C57BL/6J mice)	toxicity to mice (C57BL/6J mice)
Cc1nnc(-c2ccc3cc4ccc(N(C)C)cc4nc3c2)nn1 [PINK]	0.01	full stability	5.30 and 5.29		
C=Cc1cn([C@H]2C[C@H](O)[C@@H](CO)O2)c(=O)[nH]c1=O [VdU, 5-vinyl-2′-deoxyuridine]				incorporates into rapidly dividing cells in vivo	non-toxic to mice at high concentrations
